Reference: patent US11767310B2, “Nicotinamide RIPK1 inhibitors” (AbbVie Inc., priority 2021, dated 2023)
Where two headings read alike, the source gives them in different places.

Legend:
Assay in all cases: Kinase binding screen
Conditions in all cases: read-out: Percent Control at 100 nM Compound Concentration
GAK = GAK (Homo sapiens (Human), UniProt O14976)
TIE2 = TIE2 (Homo sapiens (Human), UniProt Q02763)
DYRK2 = DYRK2 (Homo sapiens (Human), UniProt Q92630)
PDGFRA = PDGFRA (Homo sapiens (Human), UniProt P16234)
ROCK1 = ROCK1 (Homo sapiens (Human), UniProt Q13464)
WNK1 = WNK1 (Homo sapiens (Human), UniProt Q9H4A3)
WNK1, sequence (Q9H4A3 whole entry): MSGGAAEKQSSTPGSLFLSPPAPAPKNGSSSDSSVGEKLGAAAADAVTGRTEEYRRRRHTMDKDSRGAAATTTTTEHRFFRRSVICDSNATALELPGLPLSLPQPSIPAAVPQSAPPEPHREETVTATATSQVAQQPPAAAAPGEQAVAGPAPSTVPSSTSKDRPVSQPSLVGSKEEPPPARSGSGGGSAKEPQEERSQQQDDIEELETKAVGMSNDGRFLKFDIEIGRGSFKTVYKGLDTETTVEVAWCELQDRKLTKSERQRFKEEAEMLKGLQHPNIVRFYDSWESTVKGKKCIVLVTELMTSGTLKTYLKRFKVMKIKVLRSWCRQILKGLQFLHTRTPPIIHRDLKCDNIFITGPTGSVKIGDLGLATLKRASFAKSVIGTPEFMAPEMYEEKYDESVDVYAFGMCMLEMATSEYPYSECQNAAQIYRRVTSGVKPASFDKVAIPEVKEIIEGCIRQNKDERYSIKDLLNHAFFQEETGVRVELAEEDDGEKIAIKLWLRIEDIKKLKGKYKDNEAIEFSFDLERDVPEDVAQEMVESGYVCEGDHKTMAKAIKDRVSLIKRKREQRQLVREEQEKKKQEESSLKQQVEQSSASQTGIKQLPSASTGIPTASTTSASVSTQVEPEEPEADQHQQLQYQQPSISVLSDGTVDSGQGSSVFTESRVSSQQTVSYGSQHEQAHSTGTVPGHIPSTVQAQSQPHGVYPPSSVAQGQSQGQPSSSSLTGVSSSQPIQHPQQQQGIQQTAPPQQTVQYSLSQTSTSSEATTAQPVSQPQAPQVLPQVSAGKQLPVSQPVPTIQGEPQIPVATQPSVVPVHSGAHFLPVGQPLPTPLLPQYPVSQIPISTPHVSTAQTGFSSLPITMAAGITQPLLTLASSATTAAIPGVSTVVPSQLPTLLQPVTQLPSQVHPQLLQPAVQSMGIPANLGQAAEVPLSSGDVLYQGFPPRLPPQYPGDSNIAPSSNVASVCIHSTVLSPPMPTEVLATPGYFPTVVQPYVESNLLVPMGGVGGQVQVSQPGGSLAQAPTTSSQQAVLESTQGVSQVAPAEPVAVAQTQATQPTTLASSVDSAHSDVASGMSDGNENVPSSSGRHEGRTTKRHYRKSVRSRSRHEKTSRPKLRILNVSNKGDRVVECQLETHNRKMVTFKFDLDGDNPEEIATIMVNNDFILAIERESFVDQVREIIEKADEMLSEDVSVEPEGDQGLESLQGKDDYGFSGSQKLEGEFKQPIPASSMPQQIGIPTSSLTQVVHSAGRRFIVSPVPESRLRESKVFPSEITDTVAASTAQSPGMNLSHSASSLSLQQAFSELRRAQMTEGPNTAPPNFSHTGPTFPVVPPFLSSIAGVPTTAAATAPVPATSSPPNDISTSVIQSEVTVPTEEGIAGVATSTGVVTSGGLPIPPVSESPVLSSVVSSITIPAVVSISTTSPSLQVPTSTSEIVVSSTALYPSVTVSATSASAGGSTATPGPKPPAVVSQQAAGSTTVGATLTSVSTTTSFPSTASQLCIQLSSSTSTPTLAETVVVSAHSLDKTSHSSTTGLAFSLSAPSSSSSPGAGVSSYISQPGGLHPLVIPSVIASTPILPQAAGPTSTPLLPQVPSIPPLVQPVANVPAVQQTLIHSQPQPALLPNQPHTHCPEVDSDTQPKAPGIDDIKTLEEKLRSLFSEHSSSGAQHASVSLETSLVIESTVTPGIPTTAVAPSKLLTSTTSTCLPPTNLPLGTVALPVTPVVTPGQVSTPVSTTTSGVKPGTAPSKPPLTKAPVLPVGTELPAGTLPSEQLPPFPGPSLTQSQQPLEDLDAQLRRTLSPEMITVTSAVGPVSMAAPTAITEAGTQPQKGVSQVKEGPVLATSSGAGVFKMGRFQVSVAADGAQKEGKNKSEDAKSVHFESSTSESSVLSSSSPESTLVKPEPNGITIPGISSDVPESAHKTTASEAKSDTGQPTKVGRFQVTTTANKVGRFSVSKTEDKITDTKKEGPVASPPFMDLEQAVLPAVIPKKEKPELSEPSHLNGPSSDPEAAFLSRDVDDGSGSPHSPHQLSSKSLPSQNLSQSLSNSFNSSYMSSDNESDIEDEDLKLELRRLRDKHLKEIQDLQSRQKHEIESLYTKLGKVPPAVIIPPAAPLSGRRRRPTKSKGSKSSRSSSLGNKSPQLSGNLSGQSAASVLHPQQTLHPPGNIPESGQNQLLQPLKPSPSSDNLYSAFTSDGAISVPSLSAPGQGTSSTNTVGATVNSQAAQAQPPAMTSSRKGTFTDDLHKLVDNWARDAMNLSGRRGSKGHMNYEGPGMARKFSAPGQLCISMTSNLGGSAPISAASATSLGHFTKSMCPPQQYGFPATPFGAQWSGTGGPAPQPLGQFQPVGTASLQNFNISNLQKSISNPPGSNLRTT

MKNK1 = MKNK1 (Homo sapiens (Human), UniProt Q9BUB5)
IRAK3 = IRAK3 (Homo sapiens (Human), UniProt Q9Y616)
TGFBR1 = TGFBR1 (Homo sapiens (Human), UniProt P36897)
BMPR1B = BMPR1B (Homo sapiens (Human), UniProt O00238)
CSNK1E = CSNK1E (Homo sapiens (Human), UniProt P49674)
HUNK = HUNK (Homo sapiens (Human), UniProt P57058)
ERK4 = ERK4 (Homo sapiens (Human), UniProt P31152)
AURKB = AURKB (Homo sapiens (Human), UniProt Q96GD4)
AURKB, sequence (Q96GD4 whole entry): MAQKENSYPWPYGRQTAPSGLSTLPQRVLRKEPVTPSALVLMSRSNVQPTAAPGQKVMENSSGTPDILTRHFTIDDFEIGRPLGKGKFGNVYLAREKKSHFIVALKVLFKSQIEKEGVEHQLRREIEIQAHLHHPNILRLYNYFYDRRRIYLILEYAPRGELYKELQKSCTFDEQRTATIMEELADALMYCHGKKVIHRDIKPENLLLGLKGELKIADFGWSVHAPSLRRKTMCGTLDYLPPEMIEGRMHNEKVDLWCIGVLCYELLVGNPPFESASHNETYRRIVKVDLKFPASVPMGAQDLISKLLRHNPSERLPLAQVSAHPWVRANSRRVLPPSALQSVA

CDC2L2 = CDC2L2 (Homo sapiens (Human), UniProt Q9UQ88)
PIK3CA(E542K) = PIK3CA(E542K) (Homo sapiens (Human), UniProt P42336, E542K)
MET(M1250T) = MET(M1250T) (Homo sapiens (Human), UniProt P08581, M1250T)
MET(M1250T), sequence (P08581 25-1390 M1250T): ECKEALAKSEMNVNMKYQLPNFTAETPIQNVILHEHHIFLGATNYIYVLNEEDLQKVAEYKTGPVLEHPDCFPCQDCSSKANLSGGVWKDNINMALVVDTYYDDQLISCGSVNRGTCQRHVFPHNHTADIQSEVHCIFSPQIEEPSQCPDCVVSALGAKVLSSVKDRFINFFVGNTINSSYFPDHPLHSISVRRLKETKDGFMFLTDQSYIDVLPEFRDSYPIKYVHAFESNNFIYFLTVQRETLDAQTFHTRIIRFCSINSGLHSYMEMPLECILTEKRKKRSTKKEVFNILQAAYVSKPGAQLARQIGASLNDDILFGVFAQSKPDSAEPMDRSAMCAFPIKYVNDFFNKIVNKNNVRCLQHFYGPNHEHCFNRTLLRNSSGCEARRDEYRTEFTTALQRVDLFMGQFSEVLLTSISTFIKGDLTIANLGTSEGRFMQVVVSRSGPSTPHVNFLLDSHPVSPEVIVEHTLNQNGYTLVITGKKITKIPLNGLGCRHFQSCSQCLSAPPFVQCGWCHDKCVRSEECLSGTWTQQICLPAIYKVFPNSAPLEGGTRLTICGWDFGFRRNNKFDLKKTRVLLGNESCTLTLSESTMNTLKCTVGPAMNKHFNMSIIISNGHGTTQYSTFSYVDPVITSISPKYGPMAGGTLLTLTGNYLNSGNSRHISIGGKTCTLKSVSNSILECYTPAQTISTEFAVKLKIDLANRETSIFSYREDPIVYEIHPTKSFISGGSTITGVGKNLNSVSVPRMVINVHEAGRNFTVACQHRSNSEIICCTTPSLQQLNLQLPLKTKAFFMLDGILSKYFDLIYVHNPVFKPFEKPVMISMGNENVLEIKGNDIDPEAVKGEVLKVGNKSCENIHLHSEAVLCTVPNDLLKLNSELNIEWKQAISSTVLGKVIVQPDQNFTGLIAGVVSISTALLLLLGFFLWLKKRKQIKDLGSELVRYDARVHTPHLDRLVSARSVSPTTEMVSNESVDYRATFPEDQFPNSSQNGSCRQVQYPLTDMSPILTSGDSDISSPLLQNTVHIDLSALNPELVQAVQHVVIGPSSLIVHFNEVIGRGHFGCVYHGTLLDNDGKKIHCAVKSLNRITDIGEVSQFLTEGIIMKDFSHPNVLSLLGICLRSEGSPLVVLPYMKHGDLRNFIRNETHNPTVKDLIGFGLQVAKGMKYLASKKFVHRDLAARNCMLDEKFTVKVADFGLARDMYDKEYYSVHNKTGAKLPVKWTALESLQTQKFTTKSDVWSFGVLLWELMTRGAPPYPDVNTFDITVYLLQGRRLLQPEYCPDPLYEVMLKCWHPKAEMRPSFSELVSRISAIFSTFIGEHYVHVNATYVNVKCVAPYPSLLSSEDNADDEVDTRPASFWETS

S6K1 = S6K1 (Homo sapiens (Human), UniProt P23443)
S6K1, sequence (P23443 whole entry): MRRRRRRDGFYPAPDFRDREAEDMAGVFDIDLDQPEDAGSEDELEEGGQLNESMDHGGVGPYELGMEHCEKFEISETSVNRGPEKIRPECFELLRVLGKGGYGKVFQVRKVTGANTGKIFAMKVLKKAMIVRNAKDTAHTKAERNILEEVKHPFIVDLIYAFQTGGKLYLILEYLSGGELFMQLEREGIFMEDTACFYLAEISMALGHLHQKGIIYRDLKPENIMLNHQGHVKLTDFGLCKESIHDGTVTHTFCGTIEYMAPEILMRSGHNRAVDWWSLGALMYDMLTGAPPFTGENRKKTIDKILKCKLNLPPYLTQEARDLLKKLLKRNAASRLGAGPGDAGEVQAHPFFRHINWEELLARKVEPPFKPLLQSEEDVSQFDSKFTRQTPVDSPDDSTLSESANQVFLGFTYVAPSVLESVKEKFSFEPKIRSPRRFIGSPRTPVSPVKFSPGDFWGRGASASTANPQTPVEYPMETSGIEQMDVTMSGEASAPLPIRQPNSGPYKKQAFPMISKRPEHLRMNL

TSSK3 = TSSK3 (Homo sapiens (Human), UniProt Q96PN8)
PIM2 = PIM2 (Homo sapiens (Human), UniProt Q9P1W9)
AMPK-alpha1 = AMPK-alpha1 (Homo sapiens (Human), UniProt Q13131)
[1] = target: RSK3(Kin.Dom.2-C-terminal) (Homo sapiens (Human), UniProt Q15349)
CSNK1G2 = CSNK1G2 (Homo sapiens (Human), UniProt P78368)
EGFR(G719S) = EGFR(G719S) (Homo sapiens (Human), UniProt P00533, G719S)
PIK3CG = PIK3CG (Homo sapiens (Human), UniProt P48736)
GSK3A = GSK3A (Homo sapiens (Human), UniProt P49840)
NEK11 = NEK11 (Homo sapiens (Human), UniProt Q8NG66)
KIT(V559D) = KIT(V559D) (Homo sapiens (Human), UniProt P10721, V559D)
CAMK2A = CAMK2A (Homo sapiens (Human), UniProt Q9UQM7)
CAMK2A, sequence (Q9UQM7 whole entry): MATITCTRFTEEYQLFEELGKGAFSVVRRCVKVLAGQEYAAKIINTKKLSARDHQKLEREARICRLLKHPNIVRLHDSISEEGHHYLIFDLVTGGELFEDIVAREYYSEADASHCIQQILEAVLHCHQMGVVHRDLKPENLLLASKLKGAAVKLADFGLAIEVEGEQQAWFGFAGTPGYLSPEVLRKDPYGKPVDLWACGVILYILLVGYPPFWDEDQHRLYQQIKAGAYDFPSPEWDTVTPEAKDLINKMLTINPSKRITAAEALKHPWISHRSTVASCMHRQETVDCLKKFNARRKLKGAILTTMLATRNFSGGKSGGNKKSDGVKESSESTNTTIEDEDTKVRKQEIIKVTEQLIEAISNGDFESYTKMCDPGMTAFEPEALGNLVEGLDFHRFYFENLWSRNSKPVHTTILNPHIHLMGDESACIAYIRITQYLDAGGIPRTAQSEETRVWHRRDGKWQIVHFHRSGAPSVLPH

## CN(C[C@@H](O)Cc1ccccc1)C(=O)c1cncc(C#Cc2cnn(C(F)F)c2)c1 [Example 2, (S)-5-((1-(difluoromethyl)-1H-pyrazol-4-yl)ethynyl)-N-(2-hydroxy-3-phenylpropyl)-N-methylnicotinamide]
GAK; GAK
  remaining activity at 0.1 µM: 100%
TIE2; TIE2
  remaining activity at 0.1 µM: 100%
DYRK2; DYRK2
  remaining activity at 0.1 µM: 100%
PDGFRA; PDGFRA
  remaining activity at 0.1 µM: 73%
ROCK1; ROCK1
  remaining activity at 0.1 µM: 100%
WNK1; WNK1
  remaining activity at 0.1 µM: 93%
MKNK1; MKNK1
  remaining activity at 0.1 µM: 96%
IRAK3; IRAK3
  remaining activity at 0.1 µM: 96%
TGFBR1; TGFBR1
  remaining activity at 0.1 µM: 100%
BMPR1B; BMPR1B
  remaining activity at 0.1 µM: 98%
CSNK1E; CSNK1E
  remaining activity at 0.1 µM: 67%
HUNK; HUNK
  remaining activity at 0.1 µM: 82%
ERK4; ERK4
  remaining activity at 0.1 µM: 100%
AURKB; AURKB
  remaining activity at 0.1 µM: 100%
CDC2L2; CDC2L2
  remaining activity at 0.1 µM: 100%
PIK3CA(E542K); PIK3CA(E542K)
  remaining activity at 0.1 µM: 89%
MET(M1250T); MET(M1250T)
  remaining activity at 0.1 µM: 100%
S6K1; S6K1
  remaining activity at 0.1 µM: 95%
TSSK3; TSSK3
  remaining activity at 0.1 µM: 82%
PIM2; PIM2
  remaining activity at 0.1 µM: 95%
AMPK-alpha1; AMPK-alpha1
  remaining activity at 0.1 µM: 100%
[1]; RSK3(Kin.Dom.2-C-terminal)
  remaining activity at 0.1 µM: 100%
CSNK1G2; CSNK1G2
  remaining activity at 0.1 µM: 100%
EGFR(G719S); EGFR(G719S)
  remaining activity at 0.1 µM: 100%
PIK3CG; PIK3CG
  remaining activity at 0.1 µM: 100%
GSK3A; GSK3A
  remaining activity at 0.1 µM: 100%
NEK11; NEK11
  remaining activity at 0.1 µM: 100%
KIT(V559D); KIT(V559D)
  remaining activity at 0.1 µM: 100%
CAMK2A; CAMK2A
  remaining activity at 0.1 µM: 97%

## CN(C[C@H](Cc1ccccc1)OP(=O)(O)O)C(=O)c1cncc(C#Cc2cnn(C(F)F)c2)c1 [Example 19, (S)-1-(5-((1-(difluoromethyl)-1H-pyrazol-4-yl)ethynyl)-N-methylnicotinamido)-3-phenylpropan-2-yl dihydrogen phosphate]
GAK
  remaining activity at 0.1 µM: 100%
TIE2
  remaining activity at 0.1 µM: 88%
DYRK2
  remaining activity at 0.1 µM: 97%
PDGFRA
  remaining activity at 0.1 µM: 85%
ROCK1
  remaining activity at 0.1 µM: 100%
WNK1
  remaining activity at 0.1 µM: 94%
MKNK1
  remaining activity at 0.1 µM: 91%
IRAK3
  remaining activity at 0.1 µM: 92%
TGFBR1
  remaining activity at 0.1 µM: 100%
BMPR1B
  remaining activity at 0.1 µM: 99%
CSNK1E
  remaining activity at 0.1 µM: 74%
HUNK
  remaining activity at 0.1 µM: 96%
ERK4
  remaining activity at 0.1 µM: 100%
AURKB
  remaining activity at 0.1 µM: 90%
CDC2L2
  remaining activity at 0.1 µM: 100%
PIK3CA(E542K)
  remaining activity at 0.1 µM: 81%
MET(M1250T)
  remaining activity at 0.1 µM: 100%
S6K1
  remaining activity at 0.1 µM: 95%
TSSK3
  remaining activity at 0.1 µM: 100%
PIM2
  remaining activity at 0.1 µM: 100%
AMPK-alpha1
  remaining activity at 0.1 µM: 100%
[1]
  remaining activity at 0.1 µM: 100%
CSNK1G2
  remaining activity at 0.1 µM: 95%
EGFR(G719S)
  remaining activity at 0.1 µM: 72%
PIK3CG
  remaining activity at 0.1 µM: 100%
GSK3A
  remaining activity at 0.1 µM: 100%
NEK11
  remaining activity at 0.1 µM: 95%
KIT(V559D)
  remaining activity at 0.1 µM: 96%
CAMK2A
  remaining activity at 0.1 µM: 100%
